# Data taken from ChEMBL document CHEMBL1123235, “Cholecystokinin antagonists. Synthesis of asperlicin analogues with improved potency and water solubility” (J Med Chem, 1986).
# Target: T1, Cholecystokinin receptor (Rattus norvegicus, UniProt P30551+P30553)
# T1 sequence (P30551 whole entry): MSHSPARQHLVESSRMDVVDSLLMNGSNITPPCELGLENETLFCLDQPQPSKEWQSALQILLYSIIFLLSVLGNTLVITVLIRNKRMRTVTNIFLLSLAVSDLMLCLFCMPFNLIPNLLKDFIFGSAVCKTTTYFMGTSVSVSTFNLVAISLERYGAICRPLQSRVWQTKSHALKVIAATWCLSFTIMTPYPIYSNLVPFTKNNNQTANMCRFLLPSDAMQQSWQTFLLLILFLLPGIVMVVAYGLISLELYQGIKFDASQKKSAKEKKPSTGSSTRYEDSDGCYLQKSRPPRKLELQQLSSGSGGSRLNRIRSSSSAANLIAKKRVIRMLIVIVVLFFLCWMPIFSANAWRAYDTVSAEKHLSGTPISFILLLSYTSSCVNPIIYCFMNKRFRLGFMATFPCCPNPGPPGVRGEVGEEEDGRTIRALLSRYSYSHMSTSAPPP
# T1 sequence (P30553 whole entry): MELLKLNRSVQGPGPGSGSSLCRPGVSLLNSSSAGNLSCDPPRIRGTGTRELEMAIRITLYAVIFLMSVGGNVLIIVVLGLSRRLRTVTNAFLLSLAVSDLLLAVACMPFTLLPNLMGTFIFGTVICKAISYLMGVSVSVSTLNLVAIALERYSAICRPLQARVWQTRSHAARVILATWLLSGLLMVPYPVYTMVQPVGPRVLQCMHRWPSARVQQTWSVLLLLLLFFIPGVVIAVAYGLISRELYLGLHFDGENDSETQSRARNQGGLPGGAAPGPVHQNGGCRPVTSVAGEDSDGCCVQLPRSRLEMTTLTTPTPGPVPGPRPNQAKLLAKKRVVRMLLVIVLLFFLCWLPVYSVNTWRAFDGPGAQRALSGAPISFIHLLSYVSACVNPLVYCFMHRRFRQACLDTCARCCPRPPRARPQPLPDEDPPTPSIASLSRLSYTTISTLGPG
# Assay: Inhibition of [125I]CCK binding to rat pancreatic Cholecystokinin receptor
# Assay type: protein assay
row,IC50 [µM],Compound
1,> 100,CC(C)C[C@H]1C(=O)N2c3ccccc3[C@@](O)(C[C@@H]3NC(=O)c4ccccc4-n4c3nc3ccccc3c4=O)[C@H]2N1C(=O)C(Cc1ccc(OCc2ccccc2)cc1)NC(=O)OC(C)(C)C (stereo partly drawn)
2,5,CC(C)C[C@H]1C(=O)N2c3ccccc3[C@@](O)(C[C@@H]3NC(=O)c4ccccc4-n4c3nc3ccccc3c4=O)[C@H]2N1C(=O)OCc1ccccc1
3,85,CC(C)C[C@@H]1N[C@H]2N(C1=O)c1ccccc1[C@]2(C[C@@H]1NC(=O)c2ccccc2-n2c1nc1ccccc1c2=O)OC(=O)CCC(=O)O
4,0.4,CCN1[C@H]2N(C(=O)[C@@H]1CC(C)C)c1ccccc1[C@@]2(O)C[C@@H]1NC(=O)c2ccccc2N2C(=O)c3ccccc3NC12 (stereo partly drawn)
5,100,CC(C)C[C@H]1C(=O)N2c3ccccc3[C@](C[C@@H]3NC(=O)c4ccccc4-n4c3nc3ccccc3c4=O)(OC(=O)CCC(=O)OCc3ccccc3)[C@H]2N1C(=O)OCc1ccccc1
6,22,CC(=O)N1[C@H]2N(C(=O)[C@@H]1CC(C)C)c1ccccc1[C@@]2(O)C[C@@H]1NC(=O)c2ccccc2-n2c1nc1ccccc1c2=O
7,> 100,CC(C)C[C@H]1C(=O)N2c3ccccc3[C@@](O)(C[C@@H]3NC(=O)c4ccccc4-n4c3nc3ccccc3c4=O)[C@H]2N1C(=O)C(CCCCNC(=O)OCc1ccccc1)NC(=O)OC(C)(C)C (stereo partly drawn)
8,> 100,CC(C)C[C@H]1C(=O)N2c3ccccc3[C@@](O)(C[C@@H]3NC(=O)c4ccccc4-n4c3nc3ccccc3c4=O)[C@H]2N1C(=O)CCC(=O)O
9,4.3,CC(C)C[C@H]1C(=O)N2c3ccccc3[C@@](O)(C[C@@H]3NC(=O)c4ccccc4-n4c3nc3ccccc3c4=O)[C@H]2N1C(=O)C(CCCNC(=O)OCc1ccccc1)NC(=O)OC(C)(C)C (stereo partly drawn)
10,4.3,CC(C)C[C@H]1C(=O)N2c3ccccc3[C@@](O)(C[C@@H]3NC(=O)c4ccccc4N4C(=O)c5ccccc5NC34)[C@H]2N1C(=O)CCC(=O)O (stereo partly drawn)
11,2.5,CC(C)C[C@H]1C(=O)N2c3ccccc3[C@@](O)(C[C@@H]3NC(=O)c4ccccc4-n4c3nc3ccccc3c4=O)[C@H]2N1C(=O)C(N)CCCCN.Cl (stereo partly drawn)
12,100,CC(C)C[C@H]1C(=O)N2c3ccccc3[C@](C[C@@H]3NC(=O)c4ccccc4N4C(=O)c5ccccc5NC34)(OC(=O)CCC(=O)OCc3ccccc3)[C@H]2N1C(=O)OCc1ccccc1 (stereo partly drawn)
13,1,CC(C)C[C@H]1C(=O)N2c3ccccc3[C@@](O)(C[C@@H]3NC(=O)c4ccccc4N4C(=O)c5ccccc5NC34)[C@H]2N1C(=O)CCC(=O)[O-].[Na+] (stereo partly drawn)
14,46,CC(C)C[C@H]1C(=O)N2c3ccccc3[C@@](O)(C[C@@H]3NC(=O)c4ccccc4-n4c3nc3ccccc3c4=O)[C@H]2N1C(=O)C(Cc1ccc(O)cc1)NC(=O)OC(C)(C)C (stereo partly drawn)
15,0.2,CC(C)C[C@@H]1N[C@H]2N(C1=O)c1ccccc1[C@@]2(O)C[C@@H]1NC(=O)c2ccccc2N2C(=O)c3ccccc3NC12 (stereo partly drawn)
16,1.3,CC(C)C[C@H]1C(=O)N2c3ccccc3[C@@](O)(C[C@@H]3NC(=O)c4ccccc4N4C(=O)c5ccccc5NC34)[C@H]2N1C(=O)C(CCCNC(=O)OCc1ccccc1)NC(=O)OC(C)(C)C (stereo partly drawn)
17,0.2,CC(C)C[C@H]1C(=O)N2c3ccccc3[C@@](O)(C[C@@H]3NC(=O)c4ccccc4N4C(=O)c5ccccc5NC34)[C@H]2N1CCCc1ccccc1 (stereo partly drawn)
